Measured values published in patent US11253517B2, “Small molecule regulators of steroid receptor coactivators and methods of use thereof” (BAYLOR COLLEGE OF MEDICINE, priority 2016, dated 2022).
pIC50: −log10 of the molar value.

Key:
JAK3 = target: T1, JAK3 (Homo sapiens, UniProt P52333); test: Kinase-Glo Luminescent Kinase Assay; type: biochemical
T1 construct: purchased Promega
T1 sequence (P52333 1-1124): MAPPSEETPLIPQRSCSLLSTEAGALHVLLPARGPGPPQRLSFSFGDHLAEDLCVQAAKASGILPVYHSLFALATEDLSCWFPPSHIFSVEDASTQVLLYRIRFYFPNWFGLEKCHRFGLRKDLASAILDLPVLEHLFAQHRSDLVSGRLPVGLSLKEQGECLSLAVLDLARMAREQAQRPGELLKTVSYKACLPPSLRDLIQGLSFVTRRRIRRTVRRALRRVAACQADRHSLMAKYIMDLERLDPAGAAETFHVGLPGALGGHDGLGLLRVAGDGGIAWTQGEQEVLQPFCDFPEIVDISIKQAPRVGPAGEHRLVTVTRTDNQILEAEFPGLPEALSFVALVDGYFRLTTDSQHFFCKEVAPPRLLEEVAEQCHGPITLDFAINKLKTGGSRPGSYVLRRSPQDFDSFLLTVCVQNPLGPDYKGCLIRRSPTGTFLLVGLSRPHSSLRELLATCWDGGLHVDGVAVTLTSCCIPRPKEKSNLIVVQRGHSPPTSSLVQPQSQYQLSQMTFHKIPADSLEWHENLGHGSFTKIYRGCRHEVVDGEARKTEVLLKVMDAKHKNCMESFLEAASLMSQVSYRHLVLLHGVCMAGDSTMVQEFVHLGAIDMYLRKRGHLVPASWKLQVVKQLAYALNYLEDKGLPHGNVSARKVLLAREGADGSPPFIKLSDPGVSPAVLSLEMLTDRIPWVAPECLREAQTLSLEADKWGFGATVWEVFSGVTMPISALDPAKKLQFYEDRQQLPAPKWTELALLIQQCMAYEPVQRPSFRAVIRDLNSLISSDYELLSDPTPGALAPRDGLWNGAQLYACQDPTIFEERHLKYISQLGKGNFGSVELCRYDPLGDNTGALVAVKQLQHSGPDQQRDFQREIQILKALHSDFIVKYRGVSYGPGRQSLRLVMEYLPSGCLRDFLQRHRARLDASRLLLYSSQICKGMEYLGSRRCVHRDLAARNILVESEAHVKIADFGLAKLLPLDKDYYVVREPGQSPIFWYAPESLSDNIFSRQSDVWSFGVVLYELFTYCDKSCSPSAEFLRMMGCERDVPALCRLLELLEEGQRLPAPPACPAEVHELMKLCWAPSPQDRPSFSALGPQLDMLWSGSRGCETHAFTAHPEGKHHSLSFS
Protocol: (§1) SI-12 was also tested for its ability to disrupt kinase activity. The effects of the compound were tested on a panel of 24 kinases using a Kinase-Glo Luminescent Kinase Assay system (Promega; Madison, Wis.). SI-12 was tested, at concentrations of 1000 nM, 50 nM, and 5 nM, for its ability to interfere with recombinant kinases in the assay system. The amount of ATP to ADP conversion in the presence of SI-12 was compared to a DMSO vehicle control. The values shown in Table 3 represent the percentage of kinase activity compared to a DMSO vehicle control.
(§2) In Table 3, “−” represents less than 20% inhibition; “+” represents from 20% to 40% inhibition; “++” represents from 40% to 60% inhibition; and “+++” represents greater than 60% inhibition.

MCF-7 cells = test: IC50 in MCF-7 cells, 72 hours incubation; type: cell-based
Protocol: The compounds described herein were synthesized as described in Example 1. The IC50 values were measured in MDA-MB-468, BT-474, and MCF-7 cells by incubating a series of concentrations of the corresponding compounds for 72 hours.
In Tables 1 and 2, “−” represents IC50 or EC50 values greater than 10 μM; “+” represents IC50 or EC50 values from greater than 1 μM to 10 μM; “++” represents IC50 or EC50 values from 0.1 μM to 1 μM; and “+++” represents IC50 or EC50 values less than 0.1 μM.

panel of 24 kinases = test: Kinase-Glo Luminescent Kinase Assay, panel of 24 kinases; type: biochemical; conditions: 1000 nM, 50 nM and 5 nM, versus DMSO vehicle control
Protocol: as §1, §2

MDA-MB-231 tumor cells = test: MDA-MB-231 xenograft model (luciferase imaging); type: in vivo, Nude mice; conditions: 4 mg/kg 5 times per week, five-week period
Protocol: The quantitated luciferase activity is shown in the graph in FIG. 4.
SI-12 was evaluated in a MDA-MB-231 model where the MDA-MB-231 tumor cells were stably transfected with a luciferase expression vector. Nude mice had 2.5×10^5 tumor cells implanted into cleared mammary fat pads of nude mice. The progression of tumors in control and SI-12 treated animals (4 mg/kg 5 times per week) was followed by luciferase imaging of the mice over a five-week period.

[1] = test system: Panc-1-Luc pancreatic tumor; test: Orthotopic pancreatic cancer mouse model (Panc-1-Luc); type: in vivo, SCID mice
Protocol: FIG. 3, Panels A-E show the therapeutic efficacy of SI-12 in an orthotopic pancreatic cancer mouse model. […] Data represent mean±SEM. *, P<0.05, **, P<0.01 by student t-test.
SI-12 was tested in pancreatic, lung, brain, and melanoma cancers. A representative example for pancreatic tumor treatment is described below. Panc-1 cells stably expressing firefly luciferase cells (Panc-1-Luc, 0.5×10^6 cells per mouse) were injected into the tail of pancreas of SCID mice (6-7 weeks). The mice were randomized into two groups based on luciferase imaging (n=8 per group). Eight days after tumor inoculation, the two groups were administered SI-12 (10 mg/kg, i.p. injection, once daily) or an equal volume of vehicle control five times per week. Tumor growth and systemic toxicity were monitored based on luciferase imaging and body weight weekly. The mice were sacrificed after eight weeks of treatment. […] At the end of the experiment, tumors were harvested and weighed. The average tumor weight in SI-12 treated mice was ˜30% of the vehicle treated counterparts (FIG. 3D).
To test whether SI-12 causes SRC-3 down-regulation in vivo, the SRC-3 levels in tumor tissues were measured by immunohistochemistry (IHC). Multiple tumor tissues (N>3) collected from both the control group and the SI-12 treated group were processed and immunohistochemically stained with an anti-SRC-3 antibody or an anti-Ki-67 antibody. […] Ki-67, a cell proliferation marker, was also immunochemically analyzed.

[2] = 10 mg/kg i.p. once daily, five times per week, eight weeks

CC(=NNc1nc2cc(F)c(F)cc2n1C)c1ccc(F)cn1 [SI-12]
JAK3 kinase inhibition (JAK3; 5 nM): − (less than 20% inhibition) | JAK3 kinase inhibition (JAK3; 50 nM): + (from 20% to 40% inhibition) | JAK3 kinase inhibition (JAK3; 1000 nM): + (from 20% to 40% inhibition) | pIC50 (MCF-7 cells): > 7.00 | effects on kinase activity, panel overall (panel of 24 kinases): minimal effects on kinase activity | luciferase expression at primary tumor and lung metastasis (whole body imaging) (MDA-MB-231 tumor cells): reduced luciferase expression at both the sites of the primary tumor and of MDA-MB-231 metastasis to the lung | tumor growth in MDA-MB-231 xenograft model (MDA-MB-231 tumor cells): can inhibit tumor growth | body weight loss [1, 2]: minimal body weight loss | pancreatic tumor growth (luciferase imaging) [1, 2]: significantly delayed pancreatic tumor growth | average tumor weight relative to vehicle treated counterparts ([1]; end of experiment, after eight weeks of treatment, 10 mg/kg i.p.): ~30% | Ki-67 positive cells in tumor tissues (IHC) ([1]; versus control group, anti-Ki-67 antibody): dramatically fewer Ki-67 positive cells | SRC-3 levels in tumor tissues (IHC) ([1]; versus vehicle treated control group, anti-SRC-3 antibody): significantly lower than the vehicle treated control group
